# Reference: patent US20260256792A1, “TREATMENT OF CHRONIC SPONTANEOUS URTICARIA BY ADMINISTERING (R)-2-[3-[4-AMINO-3-(2-FLUORO-4-PHENOXY-PHENYL)PYRAZOLO[3,4-D]PYRIMIDIN-1-YL]PIPERIDINE-1-CARBONYL]-4-METHYL-4-[4-(OXETAN-3-YL)PIPERAZIN-1-YL]PENT-2-ENENITRILE” (priority 2023, published 2026)
# What was measured:
# [1] = tested on: mouse model of immune thrombocytopenia; settings: mouse ITP model; cited from earlier work
# IgG anti-TPO = assay: Phase 2 CSU study: serum IgG anti-TPO ELISA; format: in vivo, human; settings: for IgG anti-TPO (IU) Median Percent Change from Baseline: Baseline to Week 12
# Description: Blood samples were also collected through Week 12 to evaluate the change in baseline in various biomarkers, including sMRGPRX2, IgG anti-TPO, IgG anti-FCεRI, IgG anti-IgE, and IL-31.
# (§1) Collection of biological samples for other biomarker research was also part of this study. The following samples for biomarker research were required and were to be collected from all participants in this study: • Serum and plasma samples for soluble biomarkers and cellular tests. Analytes included IgG anti-IgE, IgG anti-FcεRI, IgG anti-TPO, IgE anti-TPO, IL-31, and sMRGPRX2. • Blood samples for immune cell phenotyping, including measurement of eosinophil levels • Blood samples for BTK occupancy in peripheral blood mononuclear cells (PBMCs) at selected sites
# For each patient, serum samples were to be collected on each of four visits (Visits 2, 4, 6, and end of study/follow up).
# Serum analyte testing was to be performed using the following commercial assays: • sMRGPRX2 ELISA (Cat. No. #MBS933336; MyBioSource) • IL-31 HTRF assay (Cat. No. #62HIL31PEG; Cisbio/PerkinElmer) • IgG anti-TPO ELISA (Cat. No. #ORG503; Orgentec Diagnostica GmbH)
# If dilutions were to be prepared, the same dilutions were to be prepared twice from each sample. These were to be measured on different plates. Each plate was to include a standard curve. Samples were to be measured twice for all biomarkers except for sMRGPRX2. Mean measurement values were to be calculated, and the concentration of the biomarker was to be calculated using GraphPad Prism 9 software (4-PL model).
# The IgG anti-TPO ELISA was performed according to the manufacturer's instructions.
# Assay data ranges are described below. • sMRGPRX2: 0.1 ng/mL-10 ng/mL • IgG anti-FCεRI: 0-10000 arbitrary units (AU) • IgG anti-TPO: 0-3000 international units (IU) • IgE anti-TPO: 0-500 AU • IgG anti-IgE: 0-100000 AU • IL-31: 0.1 ng/mL-20 ng/mL
# platelet aggregation = settings: healthy volunteers or patients with ITP; cited from earlier work
# eosinophils = assay: Phase 2 CSU study: immune cell phenotyping, eosinophil levels; format: in vivo, human; settings: for Eosinophils (10^9/L) Median Percent Change from Baseline: Baseline to Week 12
# Description: as §1
smiles,measurement,setting,value
"CC(C)(C=C(C#N)C(=O)N1CCC[C@@H](n2nc(-c3ccc(Oc4ccccc4)cc3F)c3c(N)ncnc32)C1)N1CCN(C2COC2)CC1 [rilzabrutinib, (R)-2-[3-[4-amino-3-(2-fluoro-4-phenoxy-phenyl)pyrazolo[3,4-d]pyrimidin-1-yl]piperidine-1-carbonyl]-4-methyl-4-[4-(oxetan-3-yl)piperazin-1-yl]pent-2-enenitrile]",platelet loss,[1],reduction
same,reduction from baseline for IgG anti-TPO,"IgG anti-TPO; 400 mg TID, Week 12",46.7%
same,IgG anti-TPO (IU) Median Percent Change from Baseline,IgG anti-TPO; 400 mg BID,−19.4%
same,IgG anti-TPO (IU) Median Percent Change from Baseline,IgG anti-TPO; 400 mg QPM,−39.9%
same,IgG anti-TPO (IU) Median Percent Change from Baseline,IgG anti-TPO; 400 mg TID,−46.7%
same,effect on platelet aggregation,platelet aggregation,does not alter
same,reduction in eosinophil levels,"eosinophils; 400 mg TID, Week 12",29.0%
same,Eosinophils (10^9/L) Median Percent Change from Baseline,eosinophils; 400 mg BID,−11.8%
same,Eosinophils (10^9/L) Median Percent Change from Baseline,eosinophils; 400 mg QPM,7.7%
same,Eosinophils (10^9/L) Median Percent Change from Baseline,eosinophils; 400 mg TID,−29.0%
